From the NIST ThermoML archive (doi:10.1021/acs.jced.6b00178)

CCCCn1cc[n+](C)c1.F[P-](F)(F)(F)(F)F [1-butyl-3-methylimidazolium hexafluorophosphate]
100 kPa
Conditions	mass density [kg/m3]	viscosity [mPa·s]
283.15 K, Metastable liquid, Concentric cylinders viscometry	–	794.33
283.15 K, Metastable liquid, Vibrating tube method	1379.9	–
288.15 K, Concentric cylinders viscometry, Liquid	–	557.27
288.15 K, Vibrating tube method, Liquid	1376.5	–
293.15 K, Concentric cylinders viscometry, Liquid	–	393.86
293.15 K, Vibrating tube method, Liquid	1372	–
298.15 K, Concentric cylinders viscometry, Liquid	–	285.02
298.15 K, Vibrating tube method, Liquid	1367.6	–
303.15 K, Concentric cylinders viscometry, Liquid	–	210.93
303.15 K, Vibrating tube method, Liquid	1363.4	–
308.15 K, Concentric cylinders viscometry, Liquid	–	159.46
308.15 K, Vibrating tube method, Liquid	1359.2	–
313.15 K, Concentric cylinders viscometry, Liquid	–	122.78
313.15 K, Vibrating tube method, Liquid	1355.1	–
318.15 K, Concentric cylinders viscometry, Liquid	–	96.28
318.15 K, Vibrating tube method, Liquid	1351	–
323.15 K, Concentric cylinders viscometry, Liquid	–	76.72
323.15 K, Vibrating tube method, Liquid	1347	–
328.15 K, Concentric cylinders viscometry, Liquid	–	62.04
328.15 K, Vibrating tube method, Liquid	1342.9	–
333.15 K, Concentric cylinders viscometry, Liquid	–	50.85
333.15 K, Vibrating tube method, Liquid	1338.9	–
338.15 K, Concentric cylinders viscometry, Liquid	–	42.2
338.15 K, Vibrating tube method, Liquid	1334.9	–
343.15 K, Concentric cylinders viscometry, Liquid	–	35.43
343.15 K, Vibrating tube method, Liquid	1330.9	–
348.15 K, Concentric cylinders viscometry, Liquid	–	30.04
348.15 K, Vibrating tube method, Liquid	1326.9	–
353.15 K, Concentric cylinders viscometry, Liquid	–	25.72
353.15 K, Vibrating tube method, Liquid	1323	–
358.15 K, Concentric cylinders viscometry, Liquid	–	22.22
358.15 K, Vibrating tube method, Liquid	1319	–
363.15 K, Concentric cylinders viscometry, Liquid	–	19.36
363.15 K, Vibrating tube method, Liquid	1315.2	–

CCCCn1cc[n+](C)c1.F[B-](F)(F)F [1-butyl-3-methylimidazolium tetrafluoroborate]
100 kPa, Liquid
Conditions	mass density, Vibrating tube method [kg/m3]	viscosity, Concentric cylinders viscometry [mPa·s]
283.15 K	1212.5	264.99
288.15 K	1208.8	192.43
293.15 K	1205.2	143.08
298.15 K	1201.6	108.74
303.15 K	1198	84.28
308.15 K	1194.5	66.52
313.15 K	1190.9	53.37
318.15 K	1187.4	43.47
323.15 K	1184	35.89
328.15 K	1180.5	30.01
333.15 K	1177	25.38
338.15 K	1173.6	21.68
343.15 K	1170.2	18.7
348.15 K	1166.8	16.26
353.15 K	1163.4	14.26
358.15 K	1160.1	12.59
363.15 K	1156.8	11.2

CCCCn1cc[n+](C)c1.N#C[S-] [1-butyl-3-methylimidazolium thiocyanate]
100 kPa, Liquid
Conditions	mass density, Vibrating tube method [kg/m3]	viscosity, Concentric cylinders viscometry [mPa·s]
283.15 K	1079.2	139.54
288.15 K	1076.2	104.51
293.15 K	1073.2	82.91
298.15 K	1070.2	62.63
303.15 K	1067.2	49.94
308.15 K	1064.2	40.48
313.15 K	1061.3	34.08
318.15 K	1058.4	27.8
323.15 K	1055.5	23.49
328.15 K	1052.6	20.06
333.15 K	1049.8	17.58
338.15 K	1047	15.08
343.15 K	1044.1	13.24
348.15 K	1041.4	11.71
353.15 K	1038.6	10.67
358.15 K	1035.8	9.355
363.15 K	1033.1	8.436

CCCCn1cc[n+](C)c1.O=S(=O)([O-])C(F)(F)F [1-butyl-3-methylimidazolium trifluoromethanesulfonate]
100 kPa
Conditions	mass density [kg/m3]	viscosity [mPa·s]
283.15 K, Metastable liquid, Concentric cylinders viscometry	–	225.61
283.15 K, Metastable liquid, Vibrating tube method	1308.4	–
288.15 K, Metastable liquid, Concentric cylinders viscometry	–	168.05
288.15 K, Metastable liquid, Vibrating tube method	1304.3	–
293.15 K, Concentric cylinders viscometry, Liquid	–	128.51
293.15 K, Vibrating tube method, Liquid	1300.3	–
298.15 K, Concentric cylinders viscometry, Liquid	–	99.14
298.15 K, Vibrating tube method, Liquid	1296.3	–
303.15 K, Concentric cylinders viscometry, Liquid	–	78.26
303.15 K, Vibrating tube method, Liquid	1292.3	–
308.15 K, Concentric cylinders viscometry, Liquid	–	62.76
308.15 K, Vibrating tube method, Liquid	1288.4	–
313.15 K, Concentric cylinders viscometry, Liquid	–	51.33
313.15 K, Vibrating tube method, Liquid	1284.5	–
318.15 K, Concentric cylinders viscometry, Liquid	–	42.1
318.15 K, Vibrating tube method, Liquid	1280.6	–
323.15 K, Concentric cylinders viscometry, Liquid	–	35.13
323.15 K, Vibrating tube method, Liquid	1276.7	–
328.15 K, Concentric cylinders viscometry, Liquid	–	29.63
328.15 K, Vibrating tube method, Liquid	1272.8	–
333.15 K, Concentric cylinders viscometry, Liquid	–	25.5
333.15 K, Vibrating tube method, Liquid	1268.9	–
338.15 K, Concentric cylinders viscometry, Liquid	–	21.72
338.15 K, Vibrating tube method, Liquid	1265.1	–
343.15 K, Concentric cylinders viscometry, Liquid	–	18.84
343.15 K, Vibrating tube method, Liquid	1261.3	–
348.15 K, Concentric cylinders viscometry, Liquid	–	16.47
348.15 K, Vibrating tube method, Liquid	1257.5	–
353.15 K, Concentric cylinders viscometry, Liquid	–	14.83
353.15 K, Vibrating tube method, Liquid	1253.7	–
358.15 K, Concentric cylinders viscometry, Liquid	–	12.86
358.15 K, Vibrating tube method, Liquid	1249.9	–
363.15 K, Concentric cylinders viscometry, Liquid	–	11.48
363.15 K, Vibrating tube method, Liquid	1246.2	–
